Experimental data reported in US20080305186A1, “Method and Composition for the Treatment of Cardiac Hypertrophy” (BOARD OF REGENTS, THE UNIVERSITY OF TEXAS SYSTEM, priority 2007, published 2008).

Test system: cardiac gene expression
Assay: Microarray analysis of cardiac gene expression (GeneChip Mouse Genome 430 2.0)
Format: in vivo, mice
Description: Microarray Sample Preparation and Analysis. Animal hearts were rapidly removed, and the atria and right ventricles were cut and immediately plunged into TRIzol Reagent (Life Technologies). Total RNA was isolated following the manufacturer's instructions, purified by phenol-chloroform extraction and then ethanol precipitation, and 20 μg further processed for microarray analysis. Briefly, cDNA synthesis, in vitro transcription, and labeling and fragmentation to produce the oligonucleotide probes were performed as instructed by the GeneChip manufacturer (Affymetrix). The probes were first hybridized to a test array (Affymetrix) and then to the GeneChip Mouse Genome 430 2.0 Array, using the GeneChip Hybridization Oven 640. The chips were washed in a GeneChip Fluidics Station 450 (Affymetrix), and the results were visualized with a GeneChip G7 scanner (Affymetrix). RMA normalization, pairwise comparisons, Student's t test and Benjamini and Hochberg correction were subsequently performed using GeneSifter (VizX Labs, Seattle, Wash.) and Spotfire DecisionSite 8.3 (Spotfire, Inc., Somerville, Mass.).
Effects on Gene Expression Profile. […] One mouse heart was used for each array, and was performed in triplicate, generating a total of 12 arrays. GeneSifter was used to perform RMA normalization, pairwise comparisons of averaged signal intensity values, and Student's t-test with Benjamini and Hochberg correction, and Spotfire was used to perform pairwise comparisons. […] Additionally, genes that were altered between any two N or cardiac hypertrophy samples were removed, as these alterations most likely represented normal variations between mice.

[1] = CH vs drug-treated isoproterenol mice
[2] = heart, drug + isoproterenol vs isoproterenol only
[3] = mouse heart, vs isoproterenol only (CH), CH vs normal 2.1
[4] = mouse heart, vs isoproterenol only (CH), CH vs normal 2.2
[5] = mouse heart, vs isoproterenol only (CH), CH vs normal 2.6
[6] = mouse heart, vs isoproterenol only (CH), CH vs normal 2.7
[7] = mouse heart, vs isoproterenol only (CH), CH vs normal 2.9
[8] = mouse heart, vs isoproterenol only (CH), CH vs normal 3.2
[9] = mouse heart, vs isoproterenol only (CH), CH vs normal 3.3
[10] = mouse heart, vs isoproterenol only (CH), CH vs normal 3.7
[11] = mouse heart, vs isoproterenol only (CH), CH vs normal 4.9

NC(=O)N1c2ccccc2C=Cc2ccccc21 [carbamazepine]
Number of Altered Genes, Average FC (1.5-fold) [1]: 709
Number of Altered Genes, Average FC (2-fold) [1]: 1
Number of Altered Genes, Minus disease variability [1]: 1
Number of Altered Genes, Minus natural variability [1]: 1
Number of Altered Genes, Reproducible [1]: 1
Number of Altered Genes, Student's t test [1]: 306
Number of Altered Genes, Correction (CH vs drug-treated isoproterenol mice, Benjamini and Hochberg): 1
Number of Altered Genes, Disease-specific (CH vs drug-treated isoproterenol mice, of 779 genes altered N vs CH, altered in the reverse direction): 1
Cytokine inducible SH2-containing protein 3 (Socs3), Microarray FC [2]: −2.4 FC
GATA binding protein 4 (Gata4), Microarray FC [2]: 2.1 FC
Lipocalin 2 (Lcn2), Microarray FC [2]: −1.6 FC
NADPH oxidase 4 (Nox4), Microarray FC [2]: −1.9 FC
Oncostatin receptor (Osmr), Microarray FC [2]: −1.7 FC
SET and MYND domain containing 1 (Smyd1), Microarray FC [2]: 1.7 FC
Serine protease inhibitor 2-2 (Spi2-2) (Serpin3n), Microarray FC [2]: −2.3 FC
FC Procollagen, type IV, alpha 1 (Col4a1), AW536690 (mouse heart, vs isoproterenol only (CH), CH vs normal 1.6): −1.8 fold
FC Fatty acid binding protein 4, adipocyte (Fabp4), BC002148 (mouse heart, vs isoproterenol only (CH), CH vs normal 1.8): −1.6 fold
FC Adenosine deaminase (Ada), NM_007398 [3]: −2.2 fold
FC EST, AV032095 [3]: −1.6 fold
FC EST, BE630073 [3]: −1.6 fold
FC Amine oxidase, copper containing 3 (Aoc3), NM_009675 [4]: −1.8 fold
FC CD14 antigen (CD14), NM_009841 [4]: −1.6 fold
FC Flavin containing monooxygenase 1 (Fmo1), BC011229 [4]: −1.6 fold
FC cDNA, BG075321 [4]: −1.6 fold
FC A disintegrin-like and metallopeptidase (reprolysin type) with thrombospondin (ADAMTS)-like 2 (Adamtsl2), AK020831 (mouse heart, vs isoproterenol only (CH), CH vs normal 2.3): −1.6 fold
FC Purine-nucleoside phosphorylase (Pnp), BC003788 (mouse heart, vs isoproterenol only (CH), CH vs normal 2.4): −1.7 fold
FC ESTs, AI447357 (mouse heart, vs isoproterenol only (CH), CH vs normal 2.5): −1.9 fold
FC Dipeptidase 1 (Dpep1), NM_007876 [5]: −1.6 fold
FC Fc fragment of IgG, low affinity IIIa, receptor (Fcrl3), BC027310 [5]: −1.6 fold
FC cDNA, AW552579 [5]: −1.7 fold
FC G7e protein, NM_033075 [6]: −1.6 fold
FC Mitogen activated protein kinase kinase kinase 8 (Map3k8), NM_007746 [6]: −1.7 fold
FC cDNA, BC019553 [6]: −2.2 fold
FC Decorin (Dcn), AV321547 [7]: −1.6 fold
FC Glycoprotein (transmembrane) nmb (Gpnmb), NM_053110 [7]: −1.5 fold
FC C-type lectin domain family 1, member a (Clec1a), BB035924 (mouse heart, vs isoproterenol only (CH), CH vs normal 3.1): −1.6 fold
FC CUB and zona pellucida-like domains 1 (Cuzd1), NM_008411 [8]: −1.5 fold
FC G7e protein, BC027314 [8]: −2.2 fold
FC Serine (or cysteine) peptidase inhibitor, clade A, member 3G (Serpina3g), BC002065 [8]: −1.7 fold
FC cDNA, BG297038 [8]: −2.9 fold
FC Pyruvate dehydrogenase kinase 4 (Pdk4), NM_013743 [9]: 1.7 fold
FC cDNA, AK012898 [9]: −2.0 fold
FC TRAF2 and K interacting kinase (Tnik), AI117633 (mouse heart, vs isoproterenol only (CH), CH vs normal 3.4): −1.7 fold
FC Interleukin-1 receptor-associated kinase 3 (Irak3), AV228493 (mouse heart, vs isoproterenol only (CH), CH vs normal 3.5): −1.6 fold
FC Mcf.2 transforming sequee-like (Mcf21), AV293368 [10]: −1.5 fold
FC cDNA, BE956710 [10]: −1.7 fold
FC Lipopolysaccharide binding protein (Lbp), NM_008489 (mouse heart, vs isoproterenol only (CH), CH vs normal 3.8): −1.8 fold
FC Nuclear factor of kappa light polypeptide gene enhaer in B-cells inhibitor, zeta (Nfkbiz), NM_030612 (mouse heart, vs isoproterenol only (CH), CH vs normal 3.9): −1.6 fold
FC Colony stimulating factor 2 receptor, beta 2, low-affinity (granulocyte-macrophage) (Csf2rb2), NM_007781 (mouse heart, vs isoproterenol only (CH), CH vs normal 4.1): −1.8 fold
FC NADPH oxidase 4 (Nox4), BC021378 (mouse heart, vs isoproterenol only (CH), CH vs normal 4.3): −1.9 fold
FC Calcium-sensitive chloride conductae protein-1 (Clca1), AF047838 (mouse heart, vs isoproterenol only (CH), CH vs normal 4.4): −1.8 fold
FC cDNA, AK008807 (mouse heart, vs isoproterenol only (CH), CH vs normal 4.5): −1.7 fold
FC Serum amyloid A 3 (Saa3), NM_011315 (mouse heart, vs isoproterenol only (CH), CH vs normal 4.7): −2.0 fold
FC Caer related gene-liver 1 (CRG-L1), AF282864 [11]: −1.5 fold
FC Calcium/calmodulin-dependent protein kinase II, beta (Camk2b), BG862223 [11]: −2.8 fold
FC Oostatin receptor (Osmr), NM_011019 (mouse heart, vs isoproterenol only (CH), CH vs normal 5.1): −1.7 fold
FC Cytokine inducible SH2-containing protein 3 (Socs3), BB241535 (mouse heart, vs isoproterenol only (CH), CH vs normal 6.0): −2.3 fold
